# Laboratory results reported in US12589086B2, “Compositions and methods for the treatment of primary biliary cholangitis” (Genfit, priority 2020, dated 2026).
# Test system: patients with PBC
# Assay: phase II study of elafibranor for the treatment of PBC (serum ALP, 12 weeks)
# Format: in vivo, human
# Conditions: for treatment effect estimate vs placebo, relative change in serum ALP (supportive analysis): ANCOVA with baseline ALP as covariate; for treatment effect estimate vs placebo, relative change in serum ALP (primary efficacy analysis): non-parametric randomization-based ANCOVA with baseline ALP as covariate, p<0.001; for mean relative change (%) from baseline to Endpoint in serum ALP: placebo 3.2%
# Experimental: Elafibranor (2-(2,6-dimethyl-4-{3 [4-(methylsulfanyl)phenyl]-3-oxopropen-1-yl}phenoxy)-2-methylpropanoic acid) is a drug currently tested in a pivotal phase III study for the treatment of PBC. Elafibranor was also evaluated in a phase II study for the treatment of PBC. […] Elafibranor (2-(2,6-dimethyl-4-{3-[4-(methylsulfanyl)phenyl]-3-oxopropen-1-yl}phenoxy)-2-methylpropanoic acid) was supplied as 80 mg white to offwhite round coated tablets with no printed inscription. A placebo tablet (of the same size as the corresponding active tablet) to match elafibranor 80 mg was provided as a white to off-white round coated tablet with no printed inscription. The placebo tablet contained the same excipients as the active formulation as well as lactose monohydrate (which was used in place of the active ingredient). […] The treatment effect estimate was −52.0% (95% Cl [−62.5; −41.5]) for the elafibranor 80 mg treatment group and −43.9% (95% Cl [−55.7; −32.1]) for the elafibranor 120 mg treatment group (FIG. 1). The primary efficacy supportive analysis conducted using an ANCOVA with baseline ALP as a covariate was consistent with the primary efficacy analysis. The treatment effect estimate was −51.4% (95% Cl [−63.3; −39.5]) for the elafibranor 80 mg treatment group and −43.9% (95% Cl [−55.8; −31.9]) for the elafibranor 120 mg treatment group (FIG. 1).
smiles,measurement,setting,value
"CSc1ccc(C(=O)C=Cc2cc(C)c(OC(C)(C)C(=O)O)c(C)c2)cc1 [elafibranor, 2-(2,6-dimethyl-4-{3-[4-(methylsulfanyl)phenyl]-3-oxopropen-1-yl}phenoxy)-2-methylpropanoic acid]",absolute change from baseline in serum ALP vs placebo at Endpoint,80 mg (p<0.001) and 120 mg treatment groups,statistically significantly different from placebo
same,relative change from baseline in serum ALP vs placebo at Endpoint,80 mg and 120 mg treatment groups,statistically significantly different from placebo
same,mean ALP values from baseline through Week 12,"80 mg and 120 mg treatment groups, FIG. 2",declining mean ALP values
same,mean relative changes (%) in ALP values from baseline through Week 12,"80 mg and 120 mg treatment groups, beginning at Week 2 up through Week 12, FIG. 3",decrease in ALP values over time
same,"treatment effect estimate vs placebo, relative change in serum ALP (supportive analysis)","80 mg, 95% CI [−63.3, −39.5]",−51.4%
same,"treatment effect estimate vs placebo, relative change in serum ALP (primary efficacy analysis)","80 mg, 95% CI [−62.5, −41.5]",−52.0%
same,"treatment effect estimate vs placebo, relative change in serum ALP (supportive analysis)","120 mg, 95% CI [−55.8, −31.9]",−43.9%
same,"treatment effect estimate vs placebo, relative change in serum ALP (primary efficacy analysis)","120 mg, 95% CI [−55.7, −32.1]",−43.9%
same,reduction in plasma ALP levels from baseline compared to placebo,PBC patients,"consistent, statistically significant reduction"
same,mean relative change (%) from baseline to Endpoint in serum ALP,"elafibranor 80 mg treatment group, PBC patients",−48.3%
same,mean relative change (%) from baseline to Endpoint in serum ALP,"elafibranor 120 mg treatment group, PBC patients",−40.6%
same,safety and tolerability in patients,in vivo,safe and well-tolerated
